Read-outs that look alike come from different tables or passages of the source. Each block holds one compound with its values, some of them ahead of it.
How the values were obtained:
gastric acid secretion = test: Gastric acid secretion inhibition, modified Shay rat procedure; type: in vivo, rats (male, CFE strain); details: Rattus norvegicus, intraduodenal, read-out: Percent inhibition of gastric acid secretion
Excerpt: The novel compounds of the present invention are effective inhibitors of gastric acid secretion and of ulcer development in experimental animals, and thus are potentially valuable as agents for the control of gastric secretion and of gastric erosion and as anti-ulcer agents. Gastric acid secretion inhibitory action is usually measured by the "Shay rat" procedure ^(1,2) with some modifications as follows.
(1) Shay et al., Gastroenterology, 5, 43 (1945).
The rats (male, CFE strain) were starved for 48 hours (water was given ad libitum) to permit evacuation of stomach contents. On the morning of the experiment, under ether anesthesia, the abdominal region was shaved and a midline incision (1-11/2" ) was made with a scapel. With the help of a closed curved hemostat the duodenum was picked up. Upon getting the duodenum into view, fingers were used to pull the stomach through the opening, the stomach was then gently manipulated with fingers to rid stomach of air and residual matter which were pushed through the pylorus. Two-5 inch sutures were drawn under the pyloric-duodenal puncture. A ligature at the juncture, was formed with one of the threads. The second ligature was also formed but not tightened.
The test compound or the vehicle, usually 1 ml./100 g. body weight, were injected into the duodenum as close as possible to the first ligature. After injection the second ligature was tightened below the injection site to minimize leakage. The stomach was placed back through the opening into the abdominal cavity, the area of incision was washed with saline and the incision was closed with autoclips. (Occasionally, instead of an intraduodenal injection, animals were dosed by the oral or subcutaneous route. In the latter case, dosing was done thirty to sixty minutes before the operation.)
The abdominal cavity was exposed by cutting with scissors and the esophagus close to the stomach was clamped off with a hemostat, the stomach was removed by cutting above the hemostat (the esophagus was cut) and between the two sutures. Extraneous tissue was removed, the stomach washed with saline and blotted on gauze. A slit was carefully made in the stomach which was held over a funnel and the contents were collected in a centrifuge tube. The stomach was further cut along the outside edge and turned inside out. Two ml. H2 O were used to wash the stomach contents into the respective centrifuge tube. The combined stomach contents and wash were then centrifuged out for 10 minutes in the International Size 2 Centrifuge (setting at 30). The supernatant was collected, volume measured and recorded, 2 drops of a phenylphthalein indicator (1% in 95% ethanol) were added and the solution was titrated with 0.02 N NaOH (or with 0.04 N NaOH when large volumes of stomach contents were encountered) to pH 8.4 (because of usual coloring of the stomach contents, phenolphthalein was only used to permit visual indication that the end point was near) and the amount of acid present was calculated.
Compounds inducing inhibition of gastric acid secretion of 20% or more were considered active. In a representative operation, and merely by way of illustration, the results obtained with this assay with typical compounds of the present invention are given in Table II below.

[1] = test system: ulcerogenic effects induced by indomethacin (stomach ulcers); type: in vivo, rat; details: indomethacin 20 mg/kg s.c.
Protocol: It is further to be noted that although prostaglandins in general are not effective when administered by oral route, the compounds of this invention are effective orally. The assay to determine the protective effect of these compounds is carried out in the following manner.
Rats were starved for 48 hours (water was given ad libitum). Indomethacin (20 mg./kg. of body weight) was administered by the subcutaneous route and one-half the dose of the test compound was administered by gavage at the same time. After three hours, the second half of the test compound was administered, also by gavage. Five hours after the administration of indomethacin the animals were decapitated and the stomachs removed. The stomachs were washed with distilled water, blotted on gauze, cut along the larger curvature, and the contents rinsed with distilled water. The stomachs were spread out, pinned on a cork and visualized under magnifying glass for ulcers. The criteria for scoring of ulcers was as previously reported. [Abdel-Galil et al. Brit. J. Pharmac. Chemotherapy 33:1-14 (1968)]. […]
1 Petechial hemorrhage of pin point ulcers
3 Many ulcers, a few large
4 Many ulcers, mainly large
Control animals treated with indomethacin but not test compound consistently give scores of about 2.5-3.5. Control animals treated with neither indomethacin not test compound give scores of about 0.5-0.8. Compounds diminishing the control ulcer score by 0.5 unit or more are considered to be active.

[2] = test system: bronchospasms elicited by histamine; test: Bronchodilator activity (Konzett assay), histamine bronchospasm; type: in vivo, guinea pigs; details: Cavia porcellus, iv, spasmogenic agent histamine; three logarithmic cumulative intravenous doses
Protocol: (§1) Bronchodilator activity was determined in guinea pigs against bronchospasms elicited by intravenous injections of 5-hydroxytryptamine, histamine or acetylchlorine by the Konzett procedure. (See J. Lulling, P. Licvens, F. El Sayed and J. Prignot, Arzneinittel-Forschung, 18, 995 (1968).]
(§2) In the Table which follows bronchodilator activity for representative compounds of this invention against one or more of the three spasmogenic agents is expressed as an ED50 determined from the results obtained with three logarithmic cumulative intravenous doses.

[3] = test system: bronchospasms elicited by 5-hydroxytryptamine; test: Bronchodilator activity (Konzett assay), 5-hydroxytryptamine bronchospasm; type: in vivo, guinea pigs; details: Cavia porcellus; spasmogenic agent 5-hydroxytryptamine; three logarithmic cumulative intravenous doses
Protocol: as §1, §2

[4] = test system: bronchospasms elicited by acetylcholine; test: Bronchodilator activity (Konzett assay), acetylcholine bronchospasm; type: in vivo, guinea pigs; details: Cavia porcellus; spasmogenic agent acetylcholine; three logarithmic cumulative intravenous doses
Protocol: as §1, §2

ligated intestine = test system: ligated intestine; parameters: species or system female Sprague-Dawley rats; details: rat, in vivo
Protocol: It is therefore unexpected and novel that in general, the compounds of this invention are not diarrheagenic at dose levels at which they are effective gastric acid secretion inhibitors. One measure of diarrheagenic potential is the ileal ligated rat assay, a description of which follows directly.
Female Sprague-Dawley rats (Charles River Laboratories) weighing less than 100 grams are fasted in individual cages for at least 18 hours. They are then anesthetized with ether and a midline incision made. The duodenum is exposed and the test drug or control injected intraduodenally. The ilcocecal junction is then exposed and the terminal ileum is ligated using 3-0 silk thread just proximal to the junction. The incision is then closed using wound clips. Rats are placed back in individual cages without food or water for four hours. After this time the rats were sacrificed, the stomach and small intestine carefully removed, and cleaned of adherent mesentery. The removed portion of gut is then weighed to the nearest 0.1 gram. Compounds inducing diarrhea such as prostaglandins, cholera toxin, etc. produce an increase in weight of the ligated intestine. This increase from control is noted in Table IV, as change in weight in grams after standardizing weights of gut to grams/100 gram rat. An increase in intestinal weight of about 1.0 g. is considered indicative of diarrheagenic potential.
When measured by this assay at effective gastric acid secretion inhibiting doses, as determined by the acute rat fistula assay representative novel compounds of Table IV are non-diarrheagenic.

[5] = test system: basal gastric acid secretion; test: Inhibition of total acid output (basal gastric acid secretion) in the acute gastric fistula rat; type: in vivo, female Sprague-Dawley rats; details: Rattus norvegicus, intraduodenal
Protocol: Inhibition of basal gastric acid secretion can be determined by the following procedure.
Female Sprague-Dawley rats weighing 140-160 grams are fasted in individual cages for 18-24 hours. The rats are then lightly anesthetized with ether and their front teeth extracted to avoid destruction of the plastic cannula. A midline incision is then made and the stomach and duodenum exposed. A flanged polyvinyl tube is inserted into the fundic portion of the stomach and secured with a purse string suture line using 4-O Mersilene. The rat is then dosed by injection of the compound into the duodenum (1.0 ml. per 100 gram body weight). After dosing, the abdominal wall and skin are closed using metal wound clips. The rat is replaced in a cage containing a longitudinal slit to allow the polyvinyl tube to hang freely. An 8 ml. plastic collecting tube is attached to the flanged cannula and hangs freely below the cage. The first 30 minute sample is discarded designating this time as zero. The collecting tube is attached again and samples removed at the end of 60 and 120 minutes. These samples are referred to as "A" and "B" in the table. The hourly samples are then transferred to a 15 ml. centrifuge and centrifuged for 5-10 minutes. Total and sediment volume are then recorded with the supernatent volume being used as volume of secretion. A 1 ml. or less aliquot is then removed and placed in a 50 ml. beaker containing 10 ml. of distilled water. This sample is then titrated using 0.01 N NaPH to pH 7.0 using a Beckman zeromatic pH meter. Volume, titratable acidity (mew/L) and total acid output (ueq/hour) are recorded. Percent inhibition is determined by comparison with the appropriate control. Groups of three rats were used for preliminary testing, and groups of six rats were used for dose-response evaluations. All compounds are administered in a vehicle consisting of 0.5% methocel, 0.4% tween 80, and saline at a constant volume of 1 ml./100 gram rat. Samples are dispersed by sonification. Percent inhibition is calculated on basis of concurrent vehicle control.
In Table III which follows is given the effect on total acid output after 60 minutes and 120 minutes of intraduodenal dose, of representative compounds of this invention.

gastrointestinal effects = details: Physician's Desk Reference 1972, p. 964; cited from earlier work
[6] = total oral dose 12.5 mg/kg, score 0-4, controls 2.5-3.0
[7] = 1 h, 60 min, read-out: % Inhibition of total acid output, after 60 minutes (A)
[8] = 2 h, 120 min, read-out: % Inhibition of total acid output, after 120 minutes (B)

SMILES: CCCCC[C@H](O)/C=C/[C@H]1[C@H](C)CC(=O)[C@@H]1C/C=C\CCCC(=O)O [l-11α-methyl-11-deoxyprostaglandin-E2, 11-deoxy-11α-methyl-prostaglandin E2]
inhibition in vivo at 50 mg/kg (gastric acid secretion): 63%
Ulcer score, treated animals ([1]; total oral dose 6.25 mg/kg, score 0 (normal) to 4, controls 3.0): 2.5
Ulcer score, treated animals [1, 6]: 2.0
Ulcer score, treated animals ([1]; total oral dose 25 mg/kg, score 0-4, controls 2.7-3.9): 1.7
ED50 [2]: 0.05 mg/kg
ED50 [3]: 0.0022 mg/kg
ED50 [4]: 1.19 mg/kg

SMILES: CCCCC[C@@H](/C=C/[C@H]1[C@H](CO)C[C@@H](O)[C@@H]1C/C=C\CCCC(=O)OC)OC(C)=O [l-11α-hydroxymethyl-15-O--acetyl-11-deoxyprostaglandin-F2 β methyl ester]
Increase in weight of intestine (ligated intestine; 10 mg/kg): +0.15 g.
inhibition in vivo at 5 mg/kg [5, 7]: 47%
inhibition in vivo at 5 mg/kg [5, 8]: 33%

SMILES: CCCCC[C@H](O)/C=C/[C@H]1C(C#N)CC(=O)[C@@H]1C/C=C\CCCC(=O)O (stereo partly drawn) [l-11α/β-cyano-11-deoxyprostaglandin-E2, 11α/β-cyano-11-deoxy-prostaglandin E2]
inhibition in vivo at 25 mg/kg (gastric acid secretion; 25 mg/kg): 31%
inhibition in vivo at 50 mg/kg (gastric acid secretion): 79%
Ulcer score, treated animals [1, 6]: 1.2
ED50 [2]: 0.0054 mg/kg
ED50 [3]: 0.036 mg/kg
ED50 [4]: 0.091 mg/kg

SMILES: COc1ccc2c(c1)c(CC(=O)O)c(C)n2C(=O)c1ccc(Cl)cc1 [indomethacin, reference compound]
Ulcer score, control animals treated with indomethacin but not test compound ([1]; 5 h): 2.5-3.5
Gastrointestinal reactions (gastrointestinal effects): occurrence and, at times, severity of gastrointestinal reactions

Now from value to compound, other results behind:

Increase in weight of intestine (ligated intestine; 10 mg/kg): +0.6 g.
SMILES: CCCCC[C@H](O)/C=C/[C@H]1[C@H](CO)C[C@@H](O)[C@@H]1C/C=C\CCCC(=O)O [l-11-dexoy-11α-hydroxymethylprostaglandin-F2 β]
inhibition in vivo at 5 mg/kg [5, 7]: 49%
inhibition in vivo at 5 mg/kg [5, 8]: 49%

Increase in weight of intestine (ligated intestine; 10 mg/kg): -0.36 g
SMILES: C=C[C@@H]1C[C@H](O)[C@H](C/C=C\CCCC(=O)O)[C@H]1/C=C/[C@@H](O)CCCCC [l-11α-vinyl-11-deoxyprostaglandin-F2 α, 11-deoxy-11α-vinylprostaglandin F2α]
inhibition in vivo at 2.5 mg/kg [5, 7]: 15%
inhibition in vivo at 5 mg/kg [5, 7]: 53%
inhibition in vivo at 2.5 mg/kg [5, 8]: 37%
inhibition in vivo at 5 mg/kg [5, 8]: 67%

Increase in weight of intestine (ligated intestine; 10 mg/kg): -0.02 g
Increase in weight of intestine (ligated intestine; 20 mg/kg): -0.1 g
SMILES: CCCCC[C@H](O)/C=C/[C@H]1C(SC(C)=O)CC(=O)[C@@H]1C/C=C\CCCC(=O)O (stereo partly drawn) [l-11-acetylthio-11-deoxyprostaglandin-E2, 11-deoxy-11α/β-acetylthioprostaglandin E2]
inhibition in vivo at 10 mg/kg [5, 7]: 66%
inhibition in vivo at 10 mg/kg [5, 8]: 68%

Increase in weight of intestine (ligated intestine; 10 mg/kg): -0.2 g
SMILES: CCCCC[C@H](O)/C=C/[C@H]1[C@H](SCC)CC(=O)[C@@H]1C/C=C\CCCC(=O)O [l-11α-ethylthio-11-deoxyprostaglandin-E2, 11-deoxy-11α-ethylthioprostaglandin E2]
